Source: US12552825B2 (Zikani Therapeutics, Inc., priority 2019, dated 2026)
Values after ≈ are worked out from the molar mass of the structure shown.

Experiments:
Format in all cases: cell-based
K. pneumoniae MP-648 = test: MIC determination by CLSI broth dilution, K. pneumoniae MP-648; conditions: Klebsiella pneumoniae, MP648, CLSI broth dilution; strain MP-648
E. coli MP-4 = test: MIC determination by CLSI broth dilution, E. coli MP-4; conditions: Escherichia coli, MP4, CLSI broth dilution; strain MP-4
S. aureus MP-12 = test: microbe, parasite or virus in culture; conditions: Staphylococcus aureus, MP12, read-out: MIC S. aureus MP-12
P. aeruginosa MP-3 = test: MIC determination by CLSI broth dilution, P. aeruginosa MP-3; conditions: Pseudomonas aeruginosa, MP3, strain MP-3
A. baumannii MP-15 = test: MIC determination by CLSI broth dilution, A. baumannii MP-15; conditions: Acinetobacter baumannii, MP15, strain MP-15, read-out: MIC A. baumanii MP-15

SMILES | MIC (K. pneumoniae MP-648) | MIC (E. coli MP-4) | MIC (S. aureus MP-12) | MIC (P. aeruginosa MP-3) | MIC (A. baumannii MP-15)
CO[C@]1(C)C[C@@H](C)CN(C)[C@](C)(C[C@H]2C[C@H](N(C)CC3CC3)C2)COC(=O)C(C)(C)C(=O)[C@H](C)[C@H]1O[C@@H]1O[C@H](C)C[C@H](N(C)C)[C@H]1O [Compound 197] | 4 to 32 µg/mL (≈ 6.01 to 48.1 µM) | < 4 µg/mL | 4 to 32 µg/mL (≈ 6.01 to 48.1 µM) | > 32 µg/mL | > 32 µg/mL
CCN1C[C@H](C)C[C@@](C)(OC)[C@H](O[C@@H]2O[C@H](C)C[C@H](N(C)C)[C@H]2O)[C@@H](C)C(=O)C(C)(C)C(=O)OC[C@@H]1CCCN1CCN(C)CC1 [Compound 180] | > 32 µg/mL | < 4 µg/mL | > 32 µg/mL | > 32 µg/mL | > 32 µg/mL
CN[C@H]1C[C@H](C[C@]2(C)COC(=O)C(C)(C)C(=O)[C@H](C)[C@@H](O[C@@H]3O[C@H](C)C[C@H](N(C)C)[C@H]3O)[C@](C)(OC)C[C@@H](C)CN2C)C1 [Compound 199] | > 32 µg/mL | 4 to 32 µg/mL (≈ 6.54 to 52.3 µM) | 4 to 32 µg/mL (≈ 6.54 to 52.3 µM) | > 32 µg/mL | > 32 µg/mL
CCN1C[C@H](C)C[C@@](C)(OC)[C@H](O[C@@H]2O[C@H](C)C[C@H](N(C)C)[C@H]2O)[C@@H](C)C(=O)C(C)(C)C(=O)OC[C@H]1[C@H](O)CCN(C)C(C)C [Compound 224] | 4 to 32 µg/mL (≈ 6.21 to 49.7 µM) | < 4 µg/mL | 4 to 32 µg/mL (≈ 6.21 to 49.7 µM) | > 32 µg/mL | > 32 µg/mL
CCN1C[C@H](C)C[C@@](C)(OC)[C@H](O[C@@H]2O[C@H](C)C[C@H](N(C)C)[C@H]2O)[C@@H](C)C(=O)C(C)(C)C(=O)OC[C@H]1[C@H](O)CCN(C)CCO [Compound 225] | 4 to 32 µg/mL (≈ 6.19 to 49.5 µM) | < 4 µg/mL | 4 to 32 µg/mL (≈ 6.19 to 49.5 µM) | > 32 µg/mL | > 32 µg/mL
CCN1C[C@H](C)C[C@@](C)(OC)[C@H](O[C@@H]2O[C@H](C)C[C@H](N(C)C)[C@H]2O)[C@@H](C)C(=O)C(C)(C)C(=O)OC[C@H]1[C@H](O)CCN(C1CC1)C1Cc2ccccc2C1 [Compound 226] | 4 to 32 µg/mL (≈ 5.38 to 43 µM) | < 4 µg/mL | 4 to 32 µg/mL (≈ 5.38 to 43 µM) | > 32 µg/mL | > 32 µg/mL
CO[C@]1(C)C[C@@H](C)CN(C)[C@H]([C@](C)(O)CCN(C)CCO)COC(=O)C(C)(C)C(=O)[C@H](C)[C@H]1O[C@@H]1O[C@H](C)C[C@H](N(C)C)[C@H]1O [Compound 228] | < 4 µg/mL | 4 to 32 µg/mL (≈ 6.19 to 49.5 µM) | > 32 µg/mL | > 32 µg/mL | > 32 µg/mL
CCN1C[C@H](C)C[C@@](C)(OC)[C@H](O[C@@H]2O[C@H](C)C[C@H](N(C)C)[C@H]2O)[C@@H](C)C(=O)C(C)(C)C(=O)OC[C@H]1C=C1CCN(Cc2ccccc2)CC1 [Compound 192] | 4 to 32 µg/mL (≈ 5.71 to 45.7 µM) | < 4 µg/mL | < 4 µg/mL | > 32 µg/mL | 4 to 32 µg/mL (≈ 5.71 to 45.7 µM)
CO[C@]1(C)C[C@@H](C)CN(C)[C@@H](CN2CCN(C(C)C)CC2)COC(=O)C(C)(C)C(=O)[C@H](C)[C@H]1O[C@@H]1O[C@H](C)C[C@H](N(C)C)[C@H]1O [Compound 156, (3S,6R,8R,9R,10R)-9-(((2S,3R,4S,6R)-4-(dimethylamino)-3-hydroxy-6-methyltetrahydro-2H-pyran-2-yl)oxy)-3-((4-isopropylpiperazin-1-yl)methyl)-8-methoxy-4,6,8,10,12,12-hexamethyl-1-oxa-4-azacyclotridecane-11,13-dione] | 4 to 32 µg/mL (≈ 6.24 to 49.9 µM) | < 4 µg/mL | 4 to 32 µg/mL (≈ 6.24 to 49.9 µM) | > 32 µg/mL | > 32 µg/mL
CO[C@]1(C)C[C@@H](C)CN(C)[C@H]([C@H](O)[C@@H](O)CO)COC(=O)C(C)(C)C(=O)[C@H](C)[C@H]1O[C@@H]1O[C@H](C)C[C@H](N(C)C)[C@H]1O [Compound 201] | > 32 µg/mL | 4 to 32 µg/mL (≈ 6.77 to 54.2 µM) | > 32 µg/mL | > 32 µg/mL | > 32 µg/mL
CO[C@]1(C)C[C@@H](C)CN(C)[C@H](/C=C/CN(C)Cc2ccc(F)cc2)COC(=O)C(C)(C)C(=O)[C@H](C)[C@H]1O[C@@H]1O[C@H](C)C[C@H](N(C)C)[C@H]1O [Compound 195] | 4 to 32 µg/mL (≈ 5.9 to 47.2 µM) | < 4 µg/mL | 4 to 32 µg/mL (≈ 5.9 to 47.2 µM) | > 32 µg/mL | 4 to 32 µg/mL (≈ 5.9 to 47.2 µM)
CCN1C[C@H](C)C[C@@](C)(OC)[C@H](O[C@@H]2O[C@H](C)C[C@H](N(C)C)[C@H]2O)[C@@H](C)C(=O)C(C)(C)C(=O)OC[C@H]1C=C1CCN(C2Cc3ccccc3C2)CC1 [Compound 191] | < 4 µg/mL | < 4 µg/mL | < 4 µg/mL | > 32 µg/mL | 4 to 32 µg/mL (≈ 5.51 to 44.1 µM)
CCCN(CCC)CC[C@@](C)(O)[C@@H]1COC(=O)C(C)(C)C(=O)[C@H](C)[C@@H](O[C@@H]2O[C@H](C)C[C@H](N(C)C)[C@H]2O)[C@](C)(OC)C[C@@H](C)CN1C [Compound 229] | > 32 µg/mL | 4 to 32 µg/mL (≈ 5.95 to 47.6 µM) | 4 to 32 µg/mL (≈ 5.95 to 47.6 µM) | > 32 µg/mL | > 32 µg/mL
CO[C@]1(C)C[C@@H](C)CN(C)[C@H](/C=C/CN2CCCC2)COC(=O)C(C)(C)C(=O)[C@H](C)[C@H]1O[C@@H]1O[C@H](C)C[C@H](N(C)C)[C@H]1O [Compound 153] | < 4 µg/mL | < 4 µg/mL | 4 to 32 µg/mL (≈ 6.56 to 52.5 µM) | > 32 µg/mL | > 32 µg/mL
CCN1C[C@H](C)C[C@@](C)(OC)[C@H](O[C@@H]2O[C@H](C)C[C@H](N(C)C)[C@H]2O)[C@@H](C)C(=O)C(C)(C)C(=O)OC[C@@H]1CN1CCN(C)CC1 [Compound 157, (3S,6R,8R,9R,10R)-9-(((2S,3R,4S,6R)-4-(dimethylamino)-3-hydroxy-6-methyltetrahydro-2H-pyran-2-yl)oxy)-4-ethyl-8-methoxy-6,8,10,12,12-pentamethyl-3-((4-methylpiperazin-1-yl)methyl)-1-oxa-4-azacyclotridecane-11,13-dione] | 4 to 32 µg/mL (≈ 6.38 to 51 µM) | < 4 µg/mL | 4 to 32 µg/mL (≈ 6.38 to 51 µM) | > 32 µg/mL | > 32 µg/mL
CO[C@]1(C)C[C@@H](C)CN(C)[C@H]([C@](C)(O)CCN2CCCC2)COC(=O)C(C)(C)C(=O)[C@H](C)[C@H]1O[C@@H]1O[C@H](C)C[C@H](N(C)C)[C@H]1O [Compound 227] | > 32 µg/mL | 4 to 32 µg/mL (≈ 6.23 to 49.9 µM) | 4 to 32 µg/mL (≈ 6.23 to 49.9 µM) | > 32 µg/mL | > 32 µg/mL
CCCN(CCC)CC[C@@H](O)[C@@H]1COC(=O)C(C)(C)C(=O)[C@H](C)[C@@H](O[C@@H]2O[C@H](C)C[C@H](N(C)C)[C@H]2O)[C@](C)(OC)C[C@@H](C)CN1CC [Compound 223] | 4 to 32 µg/mL (≈ 5.95 to 47.6 µM) | < 4 µg/mL | 4 to 32 µg/mL (≈ 5.95 to 47.6 µM) | > 32 µg/mL | > 32 µg/mL
CCN1C[C@H](C)C[C@@](C)(OC)[C@H](O[C@@H]2O[C@H](C)C[C@H](N(C)C)[C@H]2O)[C@@H](C)C(=O)C(C)(C)C(=O)OC[C@H]1CC1CCN(CCOC)CC1 [Compound 170] | < 4 µg/mL | < 4 µg/mL | 4 to 32 µg/mL (≈ 5.97 to 47.8 µM) | > 32 µg/mL | > 32 µg/mL
CO[C@]1(C)C[C@@H](C)CN(C)[C@](C)(C[C@H]2C[C@H](N(C)C(C)C)C2)COC(=O)C(C)(C)C(=O)[C@H](C)[C@H]1O[C@@H]1O[C@H](C)C[C@H](N(C)C)[C@H]1O [Compound 198] | > 32 µg/mL | 4 to 32 µg/mL (≈ 6.12 to 48.9 µM) | 4 to 32 µg/mL (≈ 6.12 to 48.9 µM) | > 32 µg/mL | > 32 µg/mL
CCN1C[C@H](C)C[C@@](C)(OC)[C@H](O[C@@H]2O[C@H](C)C[C@H](N(C)C)[C@H]2O)[C@@H](C)C(=O)C(C)(C)C(=O)OC[C@H]1[C@H](O)CCO [Compound 200, (3S,6R,8R,9R,10R)-3-((R)-1,3-dihydroxypropyl)-9-(((2S,3R,4S,6R)-4-(dimethylamino)-3-hydroxy-6-methyltetrahydro-2H-pyran-2-yl)oxy)-4-ethyl-8-methoxy-6,8,10,12,12-pentamethyl-1-oxa-4-azacyclotridecane-11,13-dione] | > 32 µg/mL | 4 to 32 µg/mL (≈ 6.79 to 54.3 µM) | > 32 µg/mL | > 32 µg/mL | > 32 µg/mL
CCN1C[C@H](C)C[C@@](C)(OC)[C@H](O[C@@H]2O[C@H](C)C[C@H](N(C)C)[C@H]2O)[C@@H](C)C(=O)C(C)(C)C(=O)OC[C@H]1[C@H](O)CCN(C)Cc1ccccc1 [Compound 194] | < 4 µg/mL | < 4 µg/mL | 4 to 32 µg/mL (≈ 5.78 to 46.2 µM) | > 32 µg/mL | 4 to 32 µg/mL (≈ 5.78 to 46.2 µM)
